# Measured values: patent US20260226068A1, “IMIDAZOTRIAZINE IL-17A MODULATORS AND USES THEREOF” (DICE ALPHA, INC., priority 2023, published 2026)
# Legend:
# [1] = Mouse oral bioavailability; type: in vivo; details: C57BL/6J mice, PO 10 mg/kg vs IV 1 mg/kg, plasma AUC, read-out: % F (Mouse), oral bioavailability
# Procedure: The test compound is administered to C57BL/6J mice intravenously (IV) at 1 mg/kg or orally (PO) at 10 mg/kg using vehicles composed of 10% DMA, 70% Polyethylene glycol 400, and 20% purified water; or 10% DMA, 50% Polyethylene glycol 400, and 40% purified water. Serial blood collections occur at 0.08, 0.25, 0.5, 1, 2, 4, 8 and 24 h post IV bolus dose administration, and 0.25, 0.5, 1, 2, 4, 8 and 24 h post oral dose administration. Blood samples are treated with EDTA anticoagulant. Plasma is isolated by centrifugation and stored at −70° C. until analysis by LC-MS/MS. Test article concentration is determined in plasma and uploaded into the Phoenix WinNonlin system where noncompartmental analysis is used to calculate Area Under the Curve (AUC) for both IV and PO arms. Bioavailability (% F) is calculated via the following equation,
# % F=(AUCPO×DoseIV)/(AUCIV×DosePO)×100
# [2] = target: T1, IL-17A/A (Homo sapiens, UniProt Q16552); assay: IL-17A/A HEK-Blue cell assay (SEAP reporter); type: cell-based; details: HEK-Blue IL-17A reporter cells, IL17A/A 5 ng/mL, 20 hours, SEAP read at A630; read-out: HEK-Blue IL17AA (IC50 for IL-17A/A inhibition)
# T1 construct: purchased Genscript Z03228
# T1 sequence (Q16552 24-155): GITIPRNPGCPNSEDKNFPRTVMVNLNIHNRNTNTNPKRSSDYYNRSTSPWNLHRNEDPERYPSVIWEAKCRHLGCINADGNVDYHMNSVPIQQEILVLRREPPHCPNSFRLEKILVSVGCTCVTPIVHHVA
# [3] = target: T2, IL-17A/F (Homo sapiens, UniProt Q16552+Q96PD4); assay: IL-17A/F HEK-Blue cell assay (SEAP reporter); type: cell-based; details: HEK-Blue IL-17A reporter cells, IL17A/F 5 ng/mL, 20 hours, SEAP read at A630; read-out: HEK-Blue IL17AF (IC50 for IL-17A/F inhibition)
# T2 construct: purchased R&D Systems
# T2 sequence (Q16552 24-155): T1 sequence (Q16552 24-155)
# T2 sequence (Q96PD4 31-163): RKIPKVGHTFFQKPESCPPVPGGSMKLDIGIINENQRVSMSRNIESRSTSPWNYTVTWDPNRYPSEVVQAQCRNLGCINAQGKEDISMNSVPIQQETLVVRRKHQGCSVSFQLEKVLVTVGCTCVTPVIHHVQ
SMILES,bioavailability [1] [%],IC50 [2] [nM],IC50 [3] [nM]
"CCn1nccc1C(=O)N[C@H](c1cn2nc(C[C@H]3C[C@@H](C(F)(F)F)CNC3=O)c(C3CCCOC3)nc2n1)[C@H]1CCCC(F)(F)C1 (single isomer, unassigned) [Compound 70]",45,< 100,< 100
"CCn1nccc1C(=O)N[C@H](c1cn2nc(CC3C[C@@H](C(F)(F)F)CNC3=O)c(N3CCO[C@H](C)C3)nc2n1)[C@@H]1CCCC(F)(F)C1 (single isomer, unassigned) [Compound 122]",51,< 100,< 100
"CCn1nccc1C(=O)N[C@H](c1cn2nc(C[C@H]3C[C@@H](C(F)(F)F)CNC3=O)c(C3CCOC3)nc2n1)[C@H]1CCCC(F)(F)C1 (single isomer, unassigned) [Compound 204]",27,< 100,100 to 1000
CCn1cnnc1C(=O)N[C@H](c1cn2nc(C[C@H]3C[C@@H](C(F)(F)F)CNC3=O)c(C3CCOCC3)nc2n1)C1CCC(F)(F)CC1 [Compound 415],,100 to 1000,> 1000
"CCn1nccc1C(=O)N[C@H](c1cn2nc(C[C@H]3C[C@@H](C(F)(F)F)CNC3=O)c(OC(C)C)nc2n1)C1CCC(F)(F)CC1 [Compound 417, N—((S)-(4,4-difluorocyclohexyl)(3-isopropoxy-2-(((3R,5R)-2-oxo-5-(trifluoromethyl)piperidin-3-yl)methyl)imidazo[1,2-b][1,2,4]triazin-6-yl)methyl)-1-ethyl-1H-pyrazole-5-carboxamide]",,< 100,> 1000
"CCn1ccc(C(=O)N[C@H](c2cn3nc(C[C@H]4C[C@@H](C(F)(F)F)CNC4=O)c(C4CCOCC4)nc3n2)C2CCC(F)(F)CC2)n1 [Compound 418, N—((S)-(4,4-difluorocyclohexyl)(2-(((3R,5R)-2-oxo-5-(trifluoromethyl)piperidin-3-yl)methyl)-3-(tetrahydro-2H-pyran-4-yl)imidazo[1,2-b][1,2,4]triazin-6-yl)methyl)-1-ethyl-1H-pyrazole-3-carboxamide]",,< 100,> 1000
O=C(N[C@H](c1cn2nc(C[C@H]3C[C@@H](C(F)(F)F)CNC3=O)c(C3CCOCC3)nc2n1)C1CCC(F)(F)CC1)c1ccnn1C1CC1 [Compound 419],,< 100,100 to 1000
CCn1nccc1C(=O)N[C@H](c1cn2nc(C[C@H]3C(=O)NC4CC3C4)c(C3CCOCC3)nc2n1)C1CCC(F)(F)CC1 [Compound 426],,< 100,> 1000
CCn1nccc1C(=O)N[C@H](c1cn2nc(C[C@@H]3C(=O)NC[C@@H]4C[C@@H]43)c(C3CCOCC3)nc2n1)C1CCC(F)(F)CC1 [Compound 427],,100 to 1000,> 1000
CCn1nccc1C(=O)N[C@H](c1cn2nc(C[C@@H]3C(=O)NC[C@H]4C[C@H]43)c(C3CCOCC3)nc2n1)C1CCC(F)(F)CC1 [Compound 428],,< 100,> 1000
CCn1nccc1C(=O)N[C@H](c1cn2nc(C[C@H]3C(=O)NC[C@H]4C[C@H]43)c(C3CCOCC3)nc2n1)C1CCC(F)(F)CC1 [Compound 429],,100 to 1000,> 1000
"O=C(N[C@H](c1cn2nc(C[C@H]3C[C@@H](C(F)(F)F)CNC3=O)c(C3CCOCC3)nc2n1)C1CCC(F)(F)CC1)c1ccnn1CCN1CCCC1C(F)(F)F (stereo partly drawn) [Compound 430, N—((S)-(4,4-difluorocyclohexyl)(2-(((3R,5R)-2-oxo-5-(trifluoromethyl)piperidin-3-yl)methyl)-3-(tetrahydro-2H-pyran-4-yl)imidazo[1,2-b][1,2,4]triazin-6-yl)methyl)-1-(2-(2-(trifluoromethyl)pyrrolidin-1-yl)ethyl)-1H-pyrazole-5-carboxamide]",,< 100,100 to 1000
"CCn1nccc1C(=O)N[C@H](c1cn2nc(C[C@H]3C[C@@H](C(F)(F)F)CNC3=O)c(N3CCN(C4COC4)CC3)nc2n1)C1CCC(F)(F)CC1 [Compound 433, N—((S)-(4,4-difluorocyclohexyl)(3-(4-(oxetan-3-yl)piperazin-1-yl)-2-(((3R,5R)-2-oxo-5-(trifluoromethyl)piperidin-3-yl)methyl)imidazo[1,2-b][1,2,4]triazin-6-yl)methyl)-1-ethyl-1H-pyrazole-5-carboxamide]",,< 100,100 to 1000
CCn1nccc1C(=O)N[C@H](c1cn2nc(CN3C[C@@H](C(F)(F)F)NC3=O)c(C3CCOCC3)nc2n1)C1CCC(F)(F)CC1 [Compound 434],,100 to 1000,> 1000

# Now from value to molecule:
bioavailability [1] [%],IC50 [2] [nM],IC50 [3] [nM],SMILES
40,< 100,100 to 1000,"CCn1nccc1C(=O)N[C@H](c1cn2nc(C[C@H]3C[C@@H](C(F)(F)F)CNC3=O)c(C3CCCOC3)nc2n1)[C@@H]1CCCC(F)(F)C1 (single isomer, unassigned) [Compound 69]"
,< 100,> 1000,"CC(C)(C)n1nccc1C(=O)N[C@H](c1cn2nc(C[C@H]3C[C@@H](C(F)(F)F)CNC3=O)c(C3CCOCC3)nc2n1)C1CCC(F)(F)CC1 [Compound 414, 1-(tert-butyl)-N—((S)-(4,4-difluorocyclohexyl)(2-(((3R,5R)-2-oxo-5-(trifluoromethyl)piperidin-3-yl)methyl)-3-(tetrahydro-2H-pyran-4-yl)imidazo[1,2-b][1,2,4]triazin-6-yl)methyl)-1H-pyrazole-5-carboxamide]"
,< 100,100 to 1000,"CCn1nccc1C(=O)N[C@H](c1cn2nc(C[C@H]3C[C@@H](C(F)(F)F)CNC3=O)c(N3CCOC(COC)C3)nc2n1)C1CCC(F)(F)CC1 (stereo partly drawn) [Compound 416, N-((1S)-(4,4-difluorocyclohexyl)(3-(2-(methoxymethyl)morpholino)-2-(((3R,5R)-2-oxo-5-(trifluoromethyl)piperidin-3-yl)methyl)imidazo[1,2-b][1,2,4]triazin-6-yl)methyl)-1-ethyl-1H-pyrazole-5-carboxamide]"
,< 100,100 to 1000,"CCn1nccc1C(=O)N[C@H](c1cn2nc(C[C@H]3C[C@@H](C(F)(F)F)CNC3=O)c(N3C[C@H](C)O[C@@H](C)C3)nc2n1)C1CCC(F)(F)CC1 [Compound 420, N—((S)-(4,4-difluorocyclohexyl)(3-((2S,6S)-2,6-dimethylmorpholino)-2-(((3R,5R)-2-oxo-5-(trifluoromethyl)piperidin-3-yl)methyl)imidazo[1,2-b][1,2,4]triazin-6-yl)methyl)-1-ethyl-1H-pyrazole-5-carboxamide]"
,< 100,> 1000,"CCc1nonc1C(=O)N[C@H](c1cn2nc(C[C@H]3C[C@@H](C(F)(F)F)CNC3=O)c(N3CCN(CCOC)CC3)nc2n1)C1CCC(F)(F)CC1 [Compound 421, N—((S)-(4,4-difluorocyclohexyl)(3-(4-(2-methoxyethyl)piperazin-1-yl)-2-(((3R,5R)-2-oxo-5-(trifluoromethyl)piperidin-3-yl)methyl)imidazo[1,2-b][1,2,4]triazin-6-yl)methyl)-4-ethyl-1,2,5-oxadiazole-3-carboxamide]"
,< 100,100 to 1000,"CCn1ncnc1C(=O)N[C@H](c1cn2nc(C[C@H]3C[C@@H](C(F)(F)F)CNC3=O)c(C3CCOCC3)nc2n1)[C@H]1CCCC(F)(F)C1 [Compound 422, N—((S)—((S)-3,3-difluorocyclohexyl)(2-(((3R,5R)-2-oxo-5-(trifluoromethyl)piperidin-3-yl)methyl)-3-(tetrahydro-2H-pyran-4-yl)imidazo[1,2-b][1,2,4]triazin-6-yl)methyl)-1-ethyl-1H-1,2,4-triazole-5-carboxamide]"
,< 100,> 1000,CCn1nccc1C(=O)N[C@H](c1cn2nc(C[C@H]3CC4(CC4)CNC3=O)c(C3CCOCC3)nc2n1)C1CCC(F)(F)CC1 [Compound 423]
,< 100,100 to 1000,CCn1nccc1C(=O)N[C@H](c1cn2nc(C[C@@H]3CC4(CC4)CNC3=O)c(C3CCOCC3)nc2n1)C1CCC(F)(F)CC1 [Compound 424]
,100 to 1000,> 1000,CCn1nccc1C(=O)N[C@H](c1cn2nc(C[C@@H]3C(=O)NC4CC3C4)c(C3CCOCC3)nc2n1)C1CCC(F)(F)CC1 [Compound 425]
,100 to 1000,> 1000,CCn1nccc1C(=O)N[C@H](c1cn2nc(CN3CC(F)(F)CNC3=O)c(C3CCOCC3)nc2n1)C1CCC(F)(F)CC1 [Compound 435]
,100 to 1000,> 1000,CCn1nccc1C(=O)N[C@H](c1cn2nc(CN3C[C@@H](C(F)(F)F)CNC3=O)c(C3CCOCC3)nc2n1)C1CCC(F)(F)CC1 [Compound 436]
,100 to 1000,> 1000,CCn1nccc1C(=O)N[C@H](c1cn2nc(CN3C[C@H](C(F)(F)F)CNC3=O)c(C3CCOCC3)nc2n1)C1CCC(F)(F)CC1 [Compound 437]
